“Also recorded” adds a separate entry of the source.
How the values were obtained:
[1] = tested on: C. acnes tdk knock-out; format: cell-based, Cutibacterium acnes
[2] = tested on: PCi-SEB_Cau sebocytes; format: cell-based, human
[3] = tested on: Neutrophil gelatinase-associated lipocalin 2 (NGAL) protein; conditions: human, in vivo; cited from earlier work

For `O=c1[nH]c(=O)n([C@H]2C[C@H](O)[C@@H](CO)O2)cc1F` [FUDR, 5-fluoro-2′-deoxyuridine], the “growth of tdk knock-out (knock-in) strain on FUDR plates” value [1] was “could grow; also recorded: no growth inhibiting effect”.
In the case of `CC[C@H]1OC(=O)[C@H](C)[C@@H](O[C@H]2C[C@@](C)(OC)[C@@H](O)[C@H](C)O2)[C@H](C)[C@@H](O[C@@H]2O[C@H](C)C[C@H](N(C)C)[C@H]2O)[C@](C)(O)C[C@@H](C)C(=O)[C@H](C)[C@@H](O)[C@]1(C)O` [ery, erythromycin], the “growth of tdk knock-out (knock-in, ermE) strain on erythromycin plates” value [1] is reported as “could grow”.
In the case of `CC1=C(/C=C/C(C)=C/C=C/C(C)=C\C(=O)O)C(C)(C)CCC1` [isotretinoin, 13-cis retinoic acid], the “decrease in sebum production compared to AA treated cells” value [2] is listed as 1.8 fold and the “increase in NGAL protein in treated patients” value [3] is listed as 7 fold.
